# Measurements published in patent US12077503B2, “Substituted cyclic amides and their use as herbicides” (FMC CORPORATION, priority 2015, dated 2024).
# Key:
# Assay type in all cases: in vivo
# [1] = test system: Kochia (Kochia scoparia); assay: Test A preemergence
# Method in brief: (§1)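 Visual injury, scored on a 0–100 scale relative to untreated controls, was recorded about 10 d after application. Treatments were a preemergence soil spray over planted seeds or a postemergence spray on plants at the one- to two-leaf stage, 2 to 10 cm tall, all in loam soil–sand blend in the greenhouse.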
# [2] = test system: barnyardgrass (Echinochloa crus-galli); assay: Test A preemergence
# Method in brief: as §1
# [3] = test system: giant foxtail (Setaria faberii); assay: Test A preemergence
# Method in brief: as §1
# [4] = test system: pigweed (Amaranthus retroflexus); assay: Test A preemergence
# [5] = test system: ragweed (common ragweed, Ambrosia elatior); assay: Test A preemergence
# Method in brief: as §1
# [6] = test system: ryegrass, Italian (Italian ryegrass, Lolium multiflorum); assay: Test A preemergence
# Method in brief: as §1
# [7] = test system: Galium (catchweed bedstraw, Galium aparine); assay: Test A postemergence
# Method in brief: as §1
# [8] = test system: Kochia (Kochia scoparia); assay: Test A postemergence
# Method in brief: as §1
# [9] = test system: barnyardgrass (Echinochloa crus-galli); assay: Test A postemergence
# Method in brief: as §1
# [10] = test system: blackgrass (Alopecurus myosuroides); assay: Test A postemergence
# Method in brief: as §1
# [11] = test system: corn (Zea mays); assay: Test A postemergence
# Method in brief: as §1
# [12] = test system: giant foxtail (Setaria faberii); assay: Test A postemergence
# Method in brief: as §1
# [13] = test system: pigweed (Amaranthus retroflexus); assay: Test A postemergence
# Method in brief: as §1
# [14] = test system: ragweed (common ragweed, Ambrosia elatior); assay: Test A postemergence
# Method in brief: as §1
# [15] = test system: ryegrass, Italian (Italian ryegrass, Lolium multiflorum); assay: Test A postemergence
# Method in brief: as §1
# [16] = test system: wheat (Triticum aestivum); assay: Test A postemergence
# Method in brief: as §1
# [17] = test system: barnyardgrass (Echinochloa crus-galli); assay: Test B flooded paddy test; details: Flood, 0 to 100 scale where 0 is no effect and 100 is complete control, 13 to 15 d
# Method in brief: (§2)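 Percent control, visually estimated after 13–15 d in the greenhouse on a 0–100 basis, compares treated pots with untreated ones; compound was put into paddy water 3 cm above the soil when plants had two leaves.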
# [18] = test system: ducksalad (Heteranthera limosa); assay: Test B flooded paddy test; details: Flood, 0 to 100 scale where 0 is no effect and 100 is complete control, 13 to 15 d
# Method in brief: as §2
# [19] = test system: rice (Oryra sativa); assay: Test B flooded paddy test; details: Flood, 0 to 100 scale where 0 is no effect and 100 is complete control, 13 to 15 d
# Method in brief: as §2
# [20] = test system: sedge, umbrella (small-flower umbrella sedge, Cyperus difformis); assay: Test B flooded paddy test; details: Flood, 0 to 100 scale where 0 is no effect and 100 is complete control, 13 to 15 d
# Method in brief: as §2
# [21] = 125 g ai/ha, preemergence, visual rating after approx. 10 d, 0 to 100 scale where 0 is no effect and 100 is complete control
# [22] = 500 g ai/ha, preemergence, 0 to 100 scale, 0 = no effect, 100 = complete control
# [23] = 125 g ai/ha, postemergence, visual injury after approximately 10 d, 0 to 100 scale (0 no effect, 100 complete control)
# [24] = 500 g ai/ha, postemergence, visual injury, 0 to 100 scale (0 no effect, 100 complete control), approx. 10 d
# [25] = 125 g ai/ha, Preemergence, visual injury after approximately 10 d, 0 to 100 scale where 0 is no effect and 100 is complete control
# [26] = 125 g ai/ha, postemergence, visual rating after approx. 10 d, 0 to 100 scale (0 no effect, 100 complete control)
# [27] = Preemergence, 500 g ai/ha, visual injury approx. 10 d
# [28] = 125 g ai/ha, postemergence, visual injury rating on 0 to 100 scale (0 no effect, 100 complete control), approx. 10 d
# [29] = Postemergence, 500 g ai/ha, 0 to 100 scale where 0 is no effect and 100 is complete control
compound,measurement,setting,value
O=C1NCC(c2cccc3ccccc23)C1C(=O)Nc1ccccc1C(F)(F)F (racemic) [Compound 712],"Plant response rating, Kochia",[1]; [21],0
same,"Plant response rating, Kochia",[1]; [22],0
same,"Plant response rating, Barnyardgrass",[2]; [21],0
same,"Plant response rating, Barnyardgrass",[2]; [22],0
same,"Plant response rating, Foxtail, Giant",[3]; [21],0
same,"Plant response rating, Foxtail, Giant",[3]; [22],0
same,"Plant response rating, Pigweed",[4]; [21],0
same,"Plant response rating, Pigweed",[4]; [22],0
same,"Plant response rating, Ragweed",[5]; [21],0
same,"Plant response rating, Ragweed",[5]; [22],0
same,"Plant response rating, Ryegrass, Italian",[6]; [21],0
same,"Plant response rating, Ryegrass, Italian",[6]; [22],0
same,"Plant response rating, Galium",[7]; [23],0
same,"Plant response rating, Galium",[7]; [24],0
same,"Plant response rating, Kochia",[8]; [23],0
same,"Plant response rating, Kochia",[8]; [24],0
same,"Plant response rating, Barnyardgrass",[9]; [23],0
same,"Plant response rating, Barnyardgrass",[9]; [24],0
same,"Plant response rating, Blackgrass",[10]; [23],0
same,"Plant response rating, Blackgrass",[10]; [24],0
same,"Plant response rating, Corn",[11]; [23],0
same,"Plant response rating, Corn",[11]; [24],0
same,"Plant response rating, Foxtail, Giant",[12]; [23],0
same,"Plant response rating, Foxtail, Giant",[12]; [24],0
same,"Plant response rating, Pigweed",[13]; [23],0
same,"Plant response rating, Pigweed",[13]; [24],0
same,"Plant response rating, Ragweed",[14]; [23],0
same,"Plant response rating, Ragweed",[14]; [24],0
same,"Plant response rating, Ryegrass, Italian",[15]; [23],0
same,"Plant response rating, Ryegrass, Italian",[15]; [24],0
same,"Plant response rating, Wheat",[16]; [23],0
same,"Plant response rating, Wheat",[16]; [24],0
same,"Plant response rating, Barnyardgrass",[17]; 500 g ai/ha,0
same,"Plant response rating, Ducksalad",[18]; 500 g ai/ha,0
same,"Plant response rating, Rice",[19]; 500 g ai/ha,0
same,"Plant response rating, Sedge, Umbrella",[20]; 500 g ai/ha,0
CN1CC(c2cc(F)cc(F)c2)C(C(=O)Nc2cccc3c2CCC3)C1=O (stereo not drawn) [Compound 659],"Plant response rating, Kochia",[1]; [25],0
same,"Plant response rating, Kochia",[1]; [22],0
same,"Plant response rating, Barnyardgrass",[2]; [25],90
same,"Plant response rating, Barnyardgrass",[2]; [22],90
same,"Plant response rating, Foxtail, Giant",[3]; [25],90
same,"Plant response rating, Foxtail, Giant",[3]; [22],90
same,"Plant response rating, Pigweed",[4]; [25],0
same,"Plant response rating, Pigweed",[4]; [22],0
same,"Plant response rating, Ragweed",[5]; [25],0
same,"Plant response rating, Ragweed",[5]; [22],0
same,"Plant response rating, Ryegrass, Italian",[6]; [25],0
same,"Plant response rating, Ryegrass, Italian",[6]; [22],30
same,"Plant response rating, Galium",[7]; [26],0
same,"Plant response rating, Galium",[7]; [24],20
same,"Plant response rating, Kochia",[8]; [26],20
same,"Plant response rating, Kochia",[8]; [24],20
same,"Plant response rating, Barnyardgrass",[9]; [26],70
same,"Plant response rating, Barnyardgrass",[9]; [24],90
same,"Plant response rating, Blackgrass",[10]; [26],40
same,"Plant response rating, Blackgrass",[10]; [24],50
same,"Plant response rating, Corn",[11]; [26],0
same,"Plant response rating, Corn",[11]; [24],50
same,"Plant response rating, Foxtail, Giant",[12]; [26],90
same,"Plant response rating, Foxtail, Giant",[12]; [24],90
same,"Plant response rating, Pigweed",[13]; [26],0
same,"Plant response rating, Pigweed",[13]; [24],0
same,"Plant response rating, Ragweed",[14]; [26],0
same,"Plant response rating, Ragweed",[14]; [24],0
same,"Plant response rating, Ryegrass, Italian",[15]; [26],0
same,"Plant response rating, Ryegrass, Italian",[15]; [24],60
same,"Plant response rating, Wheat",[16]; [26],0
same,"Plant response rating, Wheat",[16]; [24],50
same,"Plant response rating, Barnyardgrass",[17]; 250 g ai/ha,60
same,"Plant response rating, Ducksalad",[18]; 250 g ai/ha,80
same,"Plant response rating, Rice",[19]; 250 g ai/ha,15
same,"Plant response rating, Sedge, Umbrella",[20]; 250 g ai/ha,0
COc1ccc(N2CC(c3cccc(C(F)(F)F)c3)C(C(=O)Nc3ccccc3F)C2=O)cc1 (stereo not drawn) [Compound 505],"Plant response rating, Kochia",[1]; [25],0
same,"Kochia plant response rating (0 to 100 scale, 0 is no effect, 100 is complete control)",[1]; [27],0
same,"Plant response rating, Barnyardgrass",[2]; [25],0
same,"Barnyardgrass plant response rating (0 to 100 scale, 0 is no effect, 100 is complete control)",[2]; [27],0
same,"Plant response rating, Foxtail, Giant",[3]; [25],0
same,"Foxtail, Giant plant response rating (0 to 100 scale, 0 is no effect, 100 is complete control)",[3]; [27],0
same,"Plant response rating, Pigweed",[4]; [25],0
same,"Pigweed plant response rating (0 to 100 scale, 0 is no effect, 100 is complete control)",[4]; [27],0
same,"Plant response rating, Ragweed",[5]; [25],0
same,"Ragweed plant response rating (0 to 100 scale, 0 is no effect, 100 is complete control)",[5]; [27],0
same,"Plant response rating, Ryegrass, Italian",[6]; [25],0
same,"Ryegrass, Italian plant response rating (0 to 100 scale, 0 is no effect, 100 is complete control)",[6]; [27],0
same,Galium plant response rating,[7]; [28],0
same,"Plant response rating, Galium",[7]; [29],0
same,Kochia plant response rating,[8]; [28],0
same,"Plant response rating, Kochia",[8]; [29],0
same,Barnyardgrass plant response rating,[9]; [28],0
same,"Plant response rating, Barnyardgrass",[9]; [29],0
same,Blackgrass plant response rating,[10]; [28],0
same,"Plant response rating, Blackgrass",[10]; [29],0
same,Corn plant response rating,[11]; [28],0
same,"Plant response rating, Corn",[11]; [29],0
same,"Foxtail, Giant plant response rating",[12]; [28],0
same,"Plant response rating, Foxtail, Giant",[12]; [29],0
same,Pigweed plant response rating,[13]; [28],0
same,"Plant response rating, Pigweed",[13]; [29],10
same,Ragweed plant response rating,[14]; [28],0
same,"Plant response rating, Ragweed",[14]; [29],0
same,"Ryegrass, Italian plant response rating",[15]; [28],0
same,"Plant response rating, Ryegrass, Italian",[15]; [29],0
same,Wheat plant response rating,[16]; [28],0
same,"Plant response rating, Wheat",[16]; [29],0
same,"Plant response rating, Barnyardgrass",[17]; 250 g ai/ha,0
same,"Plant response rating, Ducksalad",[18]; 250 g ai/ha,0
same,"Plant response rating, Rice",[19]; 250 g ai/ha,0
same,"Plant response rating, Sedge, Umbrella",[20]; 250 g ai/ha,0
